For series [1], the target named is T1, human alpha-thrombin (Homo sapiens, UniProt P00734). Nature of the series: in vitro thrombin inhibition assay (Ki, chromogenic substrate Pefachrome t-PA). Format: biochemical. The note with it: human alpha-thrombin 0.2 nM; steady state velocities over 60 minutes; pH 7.5. How it is done:
The ability of the compounds of Example 11 and 14 to act as an inhibitor of thrombin catalytic activity was assessed by determining the compounds, inhibition constant, Ki.
Enzyme activity was determined using the chromogenic substrate Pefachrome t-PA (CH3 SO2 -D-hexahydrotyrosine-glycyl-L-arginine-p-Nitroanilide), obtained from Pentapharm Ltd. The substrate was reconstituted in deionized water prior to use. Purified human alpha-thrombin (3000U/mg specific activity) was obtained from Enzyme Research Laboratories, Inc. The buffer used for all assays was HBSA (10 mM HEPES, pH 7.5, 150 mM sodium chloride, 0.1% bovine serum albumin).
At time zero, 50 microliters of alpha-thrombin diluted in HBSA were added to the wells, yielding a final concentration of 0.2 nM in a total volume of 250 microliters. Velocities of chromogenic substrate hydrolysis which occurred over 60 minutes were measured by the change in absorbance at 405 nm using a Thermo Max® Kinetic Microplate Reader. […] The extent of substrate hydrolysis was less than 5% over the course of this assay.

The target of series [2] is T1, human alpha-thrombin. The series can be described thus: Thrombin (fIIa) IC50 assay for specificity determination. In kind it is biochemical. The note with it: 30-minute incubation. How it is done:
(§1) The ability of compounds of this invention to act as a selective inhibitor of thrombin catalytic activity was assessed by determining the concentration of test compound which inhibited the activity of this enzyme by 50%, (IC50), and comparing this value to that determined for some or all of the following related serine proteases: recombinant tissue plasminogen activator (rt-PA), plasmin, activated protein C (aPC), chymotrypsin and trypsin.
(§2) The buffer used for all assays was HBSA (10 mM HEPES, pH 7.5, 150 mM sodium chloride, 0.1% bovine serum albumin). The assay for IC50 determinations was conducted by combining in appropriate wells of a Corning microtiter plate, 50 microliters of HBSA, 50 microliters of the test compound at a specified concentration (covering a broad concentration range) diluted in HBSA (or HBSA alone for Vo (uninhibited velocity) measurement), and 50 microliters of the enzyme diluted in HBSA. […] The initial velocity of chromogenic substrate hydrolysis was measured by the change in absorbance at 405 nm using a Thermo Max® Kinetic Microplate Reader over a 5 minute period in which less than 5% of the added substrate was utilized. […]
Enzyme activity was determined using the chromogenic substrate, Pefachrome t-PA (CH3 SO2 -D-hexahydrotyrosine-glycyl-L-Arginine-p-nitroaniline, obtained from Pentapharm Ltd.). […]

Another series addresses T2, rt-PA (Homo sapiens, UniProt P00750).
T2 construct: purchased Genentech Inc. Activase
The series can be described thus: Recombinant tissue plasminogen activator (rt-PA) IC50 assay. In kind it is biochemical. The note with it: maximal concentration 2500 nM. How it is done:
as §1, §2
rt-PA catalytic activity was determined using the substrate, Pefachrome t-PA (CH3 SO2 -D-hexahydrotyrosine-glycyl-L-arginine-p-nitroanilide, obtained from Pentapharm Ltd.). […]

The target in a further series is Plasmin (Homo sapiens, UniProt P00747). Nature of the series: Plasmin IC50 assay. Format: biochemical. The note with it: maximal concentration 2500 nM. How it is done: as §1, §2
Chain of Plasmin (P00747 581-810 limits assumed): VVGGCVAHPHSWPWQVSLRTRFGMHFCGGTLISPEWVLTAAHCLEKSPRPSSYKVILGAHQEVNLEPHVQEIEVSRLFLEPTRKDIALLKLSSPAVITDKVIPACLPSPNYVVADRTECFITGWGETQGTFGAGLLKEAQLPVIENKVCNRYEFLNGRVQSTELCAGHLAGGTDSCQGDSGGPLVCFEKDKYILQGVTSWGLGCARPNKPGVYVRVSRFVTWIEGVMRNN
Chain of Plasmin (P00747 97-580 limits assumed): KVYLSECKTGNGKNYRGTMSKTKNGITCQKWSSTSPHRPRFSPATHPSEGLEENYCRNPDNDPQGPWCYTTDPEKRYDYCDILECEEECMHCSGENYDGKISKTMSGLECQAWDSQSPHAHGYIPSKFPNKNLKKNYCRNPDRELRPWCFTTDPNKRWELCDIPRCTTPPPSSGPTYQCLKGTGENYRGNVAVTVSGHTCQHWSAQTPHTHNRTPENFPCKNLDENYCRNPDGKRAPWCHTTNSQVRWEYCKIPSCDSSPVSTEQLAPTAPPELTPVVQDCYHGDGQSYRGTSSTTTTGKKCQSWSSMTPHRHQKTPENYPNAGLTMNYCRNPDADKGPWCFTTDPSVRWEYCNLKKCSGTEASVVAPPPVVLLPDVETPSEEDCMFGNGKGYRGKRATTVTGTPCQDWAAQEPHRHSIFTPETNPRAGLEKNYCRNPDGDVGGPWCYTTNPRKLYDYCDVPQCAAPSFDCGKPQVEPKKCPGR
Plasmin catalytic activity was determined using the chromogenic substrate, S-2366 (L-pyro-Glu-Pro-Arg-pNa.HCl), which was obtained from DiaPharma Group. […]

The target of the next series is T3, aPC (Homo sapiens, UniProt P04070).
T3 construct: purchased Hematologic Technologies, Inc
T3 sequence (P04070 212-450 limits assumed): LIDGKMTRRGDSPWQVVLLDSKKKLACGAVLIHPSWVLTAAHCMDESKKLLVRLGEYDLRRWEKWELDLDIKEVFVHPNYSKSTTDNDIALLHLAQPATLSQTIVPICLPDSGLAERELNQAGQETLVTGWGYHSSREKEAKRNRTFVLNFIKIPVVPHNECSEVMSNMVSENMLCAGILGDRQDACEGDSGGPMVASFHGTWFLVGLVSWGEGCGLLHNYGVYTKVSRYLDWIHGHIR
T3 sequence (P04070 43-197 limits assumed): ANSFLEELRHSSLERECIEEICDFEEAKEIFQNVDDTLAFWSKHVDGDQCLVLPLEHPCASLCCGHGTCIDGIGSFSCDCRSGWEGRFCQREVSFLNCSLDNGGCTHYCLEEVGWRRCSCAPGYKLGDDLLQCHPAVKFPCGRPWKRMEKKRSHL
The series can be described thus: Activated protein C (aPC) IC50 assay. The note with it: maximal concentration 2500 nM. Format: biochemical. How it is done: as §1, §2
aPC catalytic activity was determined using the chromogenic substrate, Pefachrome PC (delta-carbobenzloxy-D-lysine-L-prolyl-L-arginine-p-nitroanilide), obtained from Pentapharm Ltd.). […]

For a further series, the target named is T4, Chymotrypsin (Bos taurus, UniProt P00766).
T4 construct: bovine pancreatic a-chymotrypsin; purchased Worthington Biochemical Corp. CDI; host or cells: bovine pancreas
The series can be described thus: Chymotrypsin IC50 assay. Conditions: maximal concentration 2500 nM. Format: biochemical, bovine. How it is done: as §1, §2
Chymotrypsin catalytic activity was determined using the chromogenic substrate, S-2586 (methoxy-succinyl-L-arginine-L-prolyl-L-tyrosyl-p-nitroanilide), which was obtained from DiaPharma Group. […]

A further series has as its target T5, Trypsin (Bos taurus, UniProt P00760).
T5 construct: bovine pancreatic trypsin; purchased Worthington Biochemical Corp. TRL3; host or cells: bovine pancreas
T5 sequence (P00760 24-246): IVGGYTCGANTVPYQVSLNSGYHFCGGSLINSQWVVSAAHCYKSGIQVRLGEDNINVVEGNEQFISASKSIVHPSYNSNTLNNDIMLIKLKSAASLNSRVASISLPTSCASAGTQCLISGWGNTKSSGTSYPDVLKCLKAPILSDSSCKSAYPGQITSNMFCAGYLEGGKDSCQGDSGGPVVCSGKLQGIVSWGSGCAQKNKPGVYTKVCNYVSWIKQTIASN
The series can be described thus: Trypsin IC50 assay. Format: biochemical, bovine. Conditions: 30-minute incubation. How it is done: as §1, §2
Trypsin catalytic activity was determined using the chromogenic substrate, S-2222 (benzoyl-L-isoleucine-L-glutamic acid-(gamma-methyl ester)-L-arginine-p-nitroanilide), which was obtained from DiaPharma Group. […]

Series [3] deals with thrombotic occlusion in rat carotid artery. Conditions: dose that prevents complete thrombotic occlusion in 50% of animals, FeCl3 model; cited from earlier work.
In the next series the test system is thrombin. Conditions: in words; cited from earlier work.
The conditions of series [4]: in words; cited from earlier work.
The conditions of series [5]: in words; cited from earlier work. This is another data set of the same source.
For series [6] the following is noted: in words; cited from earlier work. This is another data set of the same source.
For series [7], the system named is atherosclerotic rabbit femoral artery. Conditions: in words; cited from earlier work.

T2 sequence (P00750 36-562): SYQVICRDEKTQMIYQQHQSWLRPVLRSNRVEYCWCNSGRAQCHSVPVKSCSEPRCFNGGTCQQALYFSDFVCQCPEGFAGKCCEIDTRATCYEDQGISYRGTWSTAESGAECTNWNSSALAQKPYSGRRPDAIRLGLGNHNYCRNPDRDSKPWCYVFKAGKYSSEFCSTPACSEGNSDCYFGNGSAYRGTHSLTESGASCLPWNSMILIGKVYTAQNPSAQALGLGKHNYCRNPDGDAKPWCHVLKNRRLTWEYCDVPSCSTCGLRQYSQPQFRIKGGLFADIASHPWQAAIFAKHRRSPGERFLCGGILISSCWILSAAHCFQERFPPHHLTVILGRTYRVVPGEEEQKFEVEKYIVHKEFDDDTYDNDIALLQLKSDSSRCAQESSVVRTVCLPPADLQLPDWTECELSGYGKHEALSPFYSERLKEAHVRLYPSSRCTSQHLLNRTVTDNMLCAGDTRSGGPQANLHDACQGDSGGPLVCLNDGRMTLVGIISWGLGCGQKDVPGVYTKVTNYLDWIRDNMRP

For the molecule `COc1c(NS(=O)(=O)Cc2ccccc2)ccc(C)c1CC(=O)N[C@H](C=O)CCCN=C(N)N` [Example 14, N-[2-methoxy-3-(N-benzylsulfonylamino)-6-methylphenylacetyl]-L-argininal], on human alpha-thrombin [1], the Ki – broadly, the dissociation constant of the complex between target and ligand, obtained from inhibition or displacement – came out at 1 nM. The half-maximal inhibitory concentration (IC50) (as a rule, the concentration that gives 50% inhibition) on human alpha-thrombin [2] was 1.44 nM; at rt-PA it was > 2500 nM; on Plasmin it was > 2500 nM; on aPC it was > 2500 nM; against Chymotrypsin, > 2500 nM; against Trypsin, 1810 nM.

Consider `CC1CNc2c(cccc2S(=O)(=O)N[C@@H](CCCNC(=N)N)C(=O)N2CC[C@@H](C)C[C@@H]2C(=O)O)C1` (stereo partly drawn) [Argatroban, 2R,4R-4-methyl-1-[N-2-(3-methyl-1,2,3,4-tetrahydro-8-quinolinesulfonyl)-L-argininy]-2-piperdinecarboxylic acid], for which the ED50 (usually the dose at which the effect has come halfway, by size or by number of responders) in series [3] is given as 3.8 mg/kg.

The molecule `Cc1ccc(NS(=O)(=O)Cc2ccccc2)c(O)c1CC(=O)N[C@H](C=O)CCCN=C(N)N` [Example 11, N-[2-hydroxy-3-(N-benzylsulfonylamino)-6-methylphenylacetyl]-L-argininal] yielded an inhibitory constant (Ki) on human alpha-thrombin [1] of 0.79 nM. For the same molecule, the IC50 was 3.19 nM at human alpha-thrombin [2]; > 2500 nM on rt-PA; > 2500 nM at Plasmin; > 2500 nM against aPC; > 2500 nM on Chymotrypsin; 1140 nM against Trypsin.

`CS(=O)(=O)O.CS(=O)(=O)O.N=C(N)Nc1ccc(C(=O)Oc2ccc3cc(C(=N)N)ccc3c2)cc1` [FUT 175, 6-amidino-2-naphthyl-4-guanidinobenzoate dimethanesulfonate]: the “selectivity of thrombin inhibition” value with thrombin is “non-selective”.

As to `N=C(N)c1ccc(CC(=O)C(=O)O)cc1` [APPA, 4-amidinophenylpyruvic acid], the “selectivity of thrombin inhibition” value in the series on thrombin is “non-selective, inhibiting trypsin, plasmin and kallikrein”. In addition, in [4], the toxicity entry is on record as “low toxicity”. The pharmacokinetics result in [5] is “favourable pharmacokinetics”.

Turning to Hirudin, the “antithrombotic / anticoagulant effect” value in series [6] was “potent antithrombotic agent in vivo”. In addition, the “inhibition of smooth muscle proliferation and associated restenosis” value in [7] was “effectively inhibit smooth muscle proliferation and the associated restenosis”.

(Values after patent publication US6011047A, “Substituted 3-amino-2-hydroxyphenylacetamide derivatives as enzyme inhibitors” (priority 1997, dated 2000).)
